In patent US20130261077A1 (priority 2012, published 2013):

Target: T1, FimH-CRD (Escherichia coli, UniProt P08191)
T1 construct: The first 177 amino acids of the FimH protein; thrombin tag (printed as 'fusion protein with thrombin') (cleaved yes); made in house; host or cells: bacteria (pET21b plasmid)
Assay: Competitive binding assay by fluorescence polarization, assay 1 (compounds prepared by manual serial dilution)
Protocol: The first 177 amino acids of the FimH protein were expressed as a fusion protein with thrombin in a pET21b plasmid in bacteria. This FimH protein sequence contains the carbohydrate recognition domain (CRD) and shall be termed FimH-CRD. Following bacterial expression of the protein, the FimH-CRD protein was purified to homogeneity and the thrombin tag removed by protease cleavage. A competitive binding assay by fluorescence polarization was performed using 5 nM of the Alexa 647 mannoside probe and 60 nM of the FimH-CRD. The samples are assayed in a low volume 384 well microtiter plate in a final volume of 20 μl. The final assay buffer conditions are the following, 50 mM Tris-Cl, ph 7.0, 100 mM NaCl, 1 mM EDTA, 5 mM β-mercaptoethanol, 0.05% BSA and 2.5% DMSO. Two assays are performed for FimH, termed assay 1 or assay 2. The assay conditions are the same for both assays except the following: assay 1 has compounds prepared by manual dilution in a serial dilution factor with 12-point dose response while assay 2 has compounds prepared by a robotics system also through a serial dilution factor (12 point dose response) and initially prepared in duplicate in 384 well-Corning polypropylene round bottom plates. The assay 2 plates have compound which is then frozen and must be thawed prior to use. Initially the Alexa 647 probe and the FimH-CRD are added to the assay buffer and then 0.5 μl of test compound (assay 1 or 2) between 0.4 nM to 75 μM final concentration are added (12 point titration with 3-fold serial dilution). Control wells for the Alexa 647 probe are prepared with the same conditions except for the addition of the FimH-CRD protein. Plates are then incubated for 5 hrs at room temperature in the dark and under humid conditions to prevent drying. Plates are read using the SpectraMax Paradigm multi-mode plate reader and the appropriate fluorescent polarization detection cartridge (Alexa-647).
Alexa 647 mannoside probe is prepared using the similar procedure reported for FAM mannoside (Han, Z. et. al., 2010, J. Med. Chem., 53, 4779) and is described in the scheme below.
To a blue colored stirred solution of (2S,3S,4S,5S,6R)-2-(4-aminobutoxy)-6-(hydroxymethyl)tetrahydropyran-3,4,5-triol (2.21 mg, 0.009 mmol) and the (2E)-2-[(2E,4E)-5-[3,3-dimethyl-5-sulfonato-1-(3-sulfonatopropyl)indol-1-ium-2-yl]penta-2,4-dienylidene]-3-[6-(2,5-dioxopyrrolidin-1-yl)oxy-6-oxo-hexyl]-3-methyl-1-(3-sulfonatopropyl)indoline-5-sulfonate (Potassium Ion (3)) (4.9 mg, 0.0044 mmol) in DMF (44 μL) is added Et3N (5.4 mg, 7.0 μL, 0.053 mmol) at RT. The solution is stirred at room temperature over night, concentrated, dissolved in water and purified on 12 g C-18 silica gel cartridge on Isolera system using acetonitrile in water (0 to 40%, 10 CV) and followed by lyophilization to afford Alexa 647 mannoside probe (3.3 mg, 34%) as deep blue solid.
The Kd values of the compounds are determined from dose response curves using twelve concentrations per compound in duplicate. Curves are fitted to data points using Fluorescence Polarization competitive displacement analysis, and Kds are interpolated from the resulting curves using GraphPad Prism software, version […] (GraphPad software Inc., San Diego, Calif., USA).

T1 sequence (P08191 22-177): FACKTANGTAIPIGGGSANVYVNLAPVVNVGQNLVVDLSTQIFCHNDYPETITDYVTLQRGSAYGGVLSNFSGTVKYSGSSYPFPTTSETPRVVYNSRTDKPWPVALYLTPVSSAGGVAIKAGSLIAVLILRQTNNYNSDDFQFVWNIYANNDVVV

Compound: CNC(=O)c1cc(C(=O)NC)cc(-c2cccc([C@H]3O[C@H](CO)[C@@H](O)[C@H](O)[C@@H]3O)c2)c1 [Compound 63, N^3,N^5-dimethyl-3′-((2R,3S,4R,5S,6R)-3,4,5-trihydroxy-6-(hydroxymethyl)tetrahydro-2H-pyran-2-yl)-[1,1′-biphenyl]-3,5-dicarboxamide]
- IC50: 19 nM
- Kd: 25.4 ± 14.4 nM

Compound: COC(=O)Cc1cccc(-c2cccc([C@H]3O[C@H](CO)[C@@H](O)[C@H](O)[C@@H]3O)c2)c1 [Compound 65, Methyl 2-(3′-((2R,3S,4R,5S,6R)-3,4,5-trihydroxy-6-(hydroxymethyl)tetrahydro-2H-pyran-2-yl)-[1,1′-biphenyl]-3-yl)acetate]
- IC50: 18 nM
- Kd: 5.2 ± 0.1 nM

Compound: COC(=O)Cc1ccccc1-c1cccc([C@H]2O[C@H](CO)[C@@H](O)[C@H](O)[C@@H]2O)c1 [Compound 66, Methyl 2-(3′-((2R,3S,4R,5S,6R)-3,4,5-trihydroxy-6-(hydroxymethyl)tetrahydro-2H-pyran-2-yl)-[1,1′-biphenyl]-2-yl)acetate]
- IC50: 24 nM
- Kd: 14.3 ± 6.6 nM

Compound: OC[C@H]1O[C@H](c2ccc(Cl)c(O)c2)[C@@H](O)[C@@H](O)[C@@H]1O [Compound 67, (2R,3S,4R,5S,6R)-2-(4-chloro-3-hydroxyphenyl)-6-(hydroxymethyl)tetrahydro-2H-pyran-3,4,5-triol]
- IC50: 106 nM
- Kd: 21 ± 4.3 nM

Compound: O=C(Nc1cccs1)Oc1cccc([C@H]2O[C@H](CO)[C@@H](O)[C@H](O)[C@@H]2O)c1 [Compound 69, 3-((2R,3S,4R,5S,6R)-3,4,5-trihydroxy-6-(hydroxymethyl)tetrahydro-2H-pyran-2-yl)phenyl thiophen-2-ylcarbamate]
- IC50: 66 nM
- Kd: 13.1 ± 0.7 nM

Compound: O=C(Nc1ccc(F)cc1)Oc1cccc([C@H]2O[C@H](CO)[C@@H](O)[C@H](O)[C@@H]2O)c1 [Compound 70, 3-((2R,3S,4R,5S,6R)-3,4,5-trihydroxy-6-(hydroxymethyl)tetrahydro-2H-pyran-2-yl)phenyl (4-fluorophenyl)carbamate]
- IC50: 46 nM
- Kd: 11.6 ± 4.2 nM

Compound: CN(C)c1ccc(NC(=O)Oc2cccc([C@H]3O[C@H](CO)[C@@H](O)[C@H](O)[C@@H]3O)c2)cc1 [Compound 71, 3-((2R,3S,4R,5S,6R)-3,4,5-trihydroxy-6-(hydroxymethyl)tetrahydro-2H-pyran-2-yl)phenyl (4-(dimethylamino)phenyl)carbamate]
- IC50: 67 nM
- Kd: 14.6 ± 2.3 nM

Compound: C[C@@H](NC(=O)Oc1cccc([C@H]2O[C@H](CO)[C@@H](O)[C@H](O)[C@@H]2O)c1)c1ccccc1 [Compound 72, 3-((2R,3S,4R,5S,6R)-3,4,5-trihydroxy-6-(hydroxymethyl)tetrahydro-2H-pyran-2-yl)phenyl (R)-1-phenylethylcarbamate]
- IC50: 60 nM
- Kd: 16.2 ± 5.4 nM

Compound: OC[C@H]1O[C@H](c2cccc(C#Cc3cc(Cl)cc(Cl)c3)c2)[C@@H](O)[C@@H](O)[C@@H]1O [Compound 92, (2R,3S,4R,5S,6R)-2-[3-[2-(3,5-Dichlorophenyl)ethynyl]phenyl]-6-(hydroxymethyl)tetrahydropyran-3,4,5-triol]
- Kd: 24.9 ± 11.3 nM

Compound: COc1ccc([C@H]2O[C@H](CO)[C@@H](O)[C@H](O)[C@@H]2O)cc1-c1ccc(-c2nnc(C)o2)cc1 [Compound 132, (2R,3S,4R,5S,6R)-2-(hydroxymethyl)-6-[4-methoxy-3-[4-(5-methyl-1,3,4-oxadiazol-2-yl)phenyl]phenyl]tetrahydropyran-3,4,5-triol]
- Kd: 6.9 ± 0.02 nM

Compound: Cc1nnc(-c2ccc(C#Cc3cccc([C@H]4O[C@H](CO)[C@@H](O)[C@H](O)[C@@H]4O)c3)cc2)o1 [Compound 133, (2R,3S,4R,5S,6R)-2-(hydroxymethyl)-6-[3-[2-[4-(5-methyl-1,3,4-oxadiazol-2-yl)phenyl]ethynyl]phenyl]tetrahydropyran-3,4,5-triol]
- Kd: 6.1 ± 1.4 nM
